Patent US20230393140A1, “BINDING ASSAYS INVOLVING A PLURALITY OF SYNTHETIC COMPOUNDS, TARGETS, AND COUNTER TARGETS” (SRI International, priority 2020, published 2023)
Where two headings read alike, the source gives them in different places. Numbered stars: 1 amine (or outer) side, 2 acyl side, 3 side chain; on linkers, the order of the positions; unused ones are H or OH. Square brackets hold non-standard residues; d marks the D form. Peptide text beside a SMILES is read from it. * marks the point of attachment. 5FAM = O=C1OC2(c3ccc(O)cc3Oc3cc(O)ccc32)c2ccc(C(=O)*)cc21; NHCH2C6H4(4-CH2CONH2) = NC(=O)Cc1ccc(CN*)cc1; X1 = O=C(Cc1ccc(CN[*:1])cc1)[*:2]

Key:
cRaf/K-Ras (G12V) PPI = target: T1, cRaf/K-Ras (G12V) PPI (Homo sapiens, UniProt P01116, G12V); assay: K-Ras-cRaf HTRF-based PPI profiling; format: biochemical; details: for blank corrected HTRF: raw data, compounds without fluorescein;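 as to blank corrected HTRF: background is the signal of wells with all components except cRaf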
T1 construct: b-Kras G12V (GppNHp) (aa 2-169); biotin (b-
Experimental: In some experimental embodiments, a buffer was added to the assay wells which included […] HEPES pH 7.4, 150 mM NaCl, 5 mM MgCl2, 1 mM DTT, 0.005% NP40, and 1% DMSO. 5 uL of 3×K-Ras protein was then added to the assay wells, followed by the synthetic compounds which were added using acoustic technology (ECHO, Labcyte) followed by thirty minutes incubation at room temperature. Afterwards, 5 uL of 3×cRaf protein was added to the assay wells and 5 uL of detection mix was then added to the assay wells after 30 minutes. The detection mix included Mab anti-GST-Tb cryptate (Cisbio 61GSTTLB) and streptavidin-XL665 (Ex/Em=(337/665; 620) in PHERAstar (BMG Labtech)). HTRF signal was measured […] later.
The data includes raw data (signal-background without cRaf protein but with all other component), % binding (relative to DMSO controls), and curve fits. Curve fits were performed when the activities at the highest concentration of the synthetic compounds were less than 65%. Tables 18A-18B below includes the raw data (e.g., blank corrected HTRF) and Tables 19A-19B includes the % binding.

K-Ras = target: T2, K-Ras (Homo sapiens, UniProt P01116, G12V); assay: MST binding affinity of resynthesized NNP hits to K-Ras
T2 construct: purchased Cytoskeleton Inc. CS-RS04
Experimental: Loading was performed according to the following protocol: The 200 μM stock solution of the target protein was diluted to 10 μM in 20 mM HEPES pH 8.0, 150 mM NaCl, 10 mM MgCl2, 1 mM TCEP, 0.05% Tween-20 (total volume 110 μL). 10 μL were set aside for later labeling quality control. EDTA pH 8.0 (stock concentration 10 mM) was added to the protein solution to a final concentration of 80 μM. GTP (stock concentration 50 mM) was added to the protein solution to a final concentration of 750 μM. The solution was incubated at 30° C. for 2 hours (PCR tube) and then placed on ice for 2 minutes. MgCl2 was added to the protein solution to a final concentration of 100 mM. The resulting protein solution was buffer exchanged into the buffer required in the labeling kit for labeling. […] All the other target molecules (TNFα, IL-6, IL-6R and ASGPR) were used as received without any additional treatment.
Hit binding affinity to various targets were determined using Microscale Thermophoresis (MST). MST experiments were performed on a Monolith NT.115pico (NanoTemper Technologies GmbH, Munich, Germany). Measurements were performed at room temperature, in triplicate with incubation periods of 15, 30 and 45 minutes. […] Targets were labeled using Nanotemper Monolith 2nd Generation Protein Labeling Kits. RED-MALEIMIDE (Maleimide-647-dye) labeling kit was used for K-Ras and RED-NHS (NHS-647-dye) labeling kit was used for IL-6, IL-6R, TNFα and ASGPR. The buffer for the ASGPR contained 20 mM HEPES pH 7.4, 150 mM NaCl, 10 mM MgCl2, 2 mM CaCl2, 0.05% Pluronic F-127, and 1 mM DTT; for IL-6 contained 20 mM HEPES pH 7.4, 150 mM KCl, 10 mM MgCl2, and 0.1% Pluronic F-127; for the soluble IL-6 receptor 20 mM HEPES pH 7.4, 150 mM NaCl, 10 mM MgCl2, and 0.05% Tween-20; for K-Ras 20 mM HEPES pH 7.4, 150 mM NaCl, 10 mM MgCl2, 0.05% Tween-20 and 1 mM DTT; for TNFα 10 mM HEPES pH 7.4, 150 mM NaCl, 10 mM MgCl2, 0.05% Polysorbate-20. Triplicate data was analyzed using MO.AffinityAnalysis software (NanoTemper Technologies GmbH).

[1] = read-out: KD (nM) [95% conf. int], MST, NNP1 library hit, target K-Ras, one-site binding model

With `CC(C)[C@H](NC(=O)[C@@H](Cc1ccc(O)cc1)NC(=O)[C@@H](Cc1c[nH]cn1)NC(=O)[C@H]1CCCN1C(=O)[C@@H](Cc1c[nH]c2ccccc12)NC(=O)c1ccc2c(c1)C(=O)OC21c2ccc(O)cc2Oc2cc(O)ccc21)C(=O)NCc1ccc(CC(=O)NCC(=O)N[C@@H](C(=O)N2CCC[C@@H]2C(=O)N[C@H](CCCNC(=N)N)C(=O)N[C@@H](C)C(=O)NCc2ccc(CC(=O)N3CCC[C@@H]3C(=O)N[C@H](CO)C(=O)N[C@H](CCC(=O)O)C(=O)N[C@H](CCCNC(=N)N)C(=O)NCC(=O)NCc3ccc(CC(=O)N4CCC[C@@H]4C(=O)N[C@H](CCCCN)C(=O)N[C@H](Cc4ccc(O)cc4)C(=O)N[C@H](CCCNC(=N)N)C(=O)N[C@@H](Cc4ccccc4)C(=O)NCc4ccc(CC(=O)N[C@H](CO)C(=O)N[C@H](CO)C(=O)NCC(=O)N[C@H](CC(N)=O)C(=O)N[C@@H](Cc5ccccc5)C(=O)NCc5ccc(CC(=O)NCC(=O)N[C@H](Cc6c[nH]c7ccccc67)C(=O)N[C@H](Cc6c[nH]cn6)C(=O)N[C@H](CCCNC(=N)N)C(=O)N[C@@H](C)C(=O)NCc6ccc(CC(N)=O)cc6)cc5)cc4)cc3)cc2)C(C)C)cc1` [KRAS-1-1] (5FAM-[dW][dP][dH][dY]V[X1]G[dV][dP][dR]A[X1][dP][dS][dE][dR]G[X1][dP][dK][dY][dR]F[X1][dS][dS]G[dN]F[X1]G[dW][dH][dR]A-{NHCH2C6H4(4-CH2CONH2)}) the HillSlope (cRaf/K-Ras (G12V) PPI; curve fit of % binding, K-Ras G12V 30 nM, GST-cRaf 10 nM) was −0.7155, the “blank corrected HTRF” value (cRaf/K-Ras (G12V) PPI; conc. 1.00E−05) was 4849 and the “blank corrected HTRF” value (cRaf/K-Ras (G12V) PPI; conc. 1.11E−06) was 6589. For the same molecule, the “blank corrected HTRF” value (cRaf/K-Ras (G12V) PPI; conc. 1.23E−07) was 12756, the “blank corrected HTRF” value (cRaf/K-Ras (G12V) PPI; conc. 1.37E−08) was 14500 and the “blank corrected HTRF” value (cRaf/K-Ras (G12V) PPI; conc. 3.33E−06) was 5282. For the same molecule, the “blank corrected HTRF” value (cRaf/K-Ras (G12V) PPI; conc. 3.70E−07) was 11981, the “blank corrected HTRF” value (cRaf/K-Ras (G12V) PPI; conc. 4.12E−08) was 14675 and the “blank corrected HTRF” value (cRaf/K-Ras (G12V) PPI; conc. 5.08E−10) was 13672. For the same molecule, the Kd (K-Ras; K-Ras, compound with fluorescein on N-term, read-out: KD[nM] in MST (with fluorescein on N-term)) was 24 nM and the Kd (K-Ras; [1]) was 24 nM.
For `CC(C)[C@H](NC(=O)[C@@H](Cc1c[nH]c2ccccc12)NC(=O)[C@H]1CCCN1C(=O)[C@@H](Cc1c[nH]cn1)NC(=O)[C@@H](Cc1ccc(O)cc1)NC(=O)c1ccc2c(c1)C(=O)OC21c2ccc(O)cc2Oc2cc(O)ccc21)C(=O)NCc1ccc(CC(=O)NCC(=O)N[C@H](CCCCN)C(=O)N[C@H](Cc2c[nH]cn2)C(=O)N[C@H](CC(N)=O)C(=O)N[C@@H](Cc2ccccc2)C(=O)NCc2ccc(CC(=O)N3CCC[C@@H]3C(=O)N[C@H](CO)C(=O)N[C@H](CCC(=O)O)C(=O)N[C@H](CCCNC(=N)N)C(=O)NCC(=O)NCc3ccc(CC(=O)N4CCC[C@@H]4C(=O)N[C@H](CCCCN)C(=O)N[C@H](Cc4ccc(O)cc4)C(=O)N[C@H](CCCNC(=N)N)C(=O)N[C@@H](Cc4ccccc4)C(=O)NCc4ccc(CC(=O)N5CCC[C@@H]5C(=O)NCC(=O)N[C@H](CCCNC(=N)N)C(=O)N[C@H](Cc5c[nH]c6ccccc56)C(=O)NCC(=O)NCc5ccc(CC(=O)N[C@H](Cc6ccc(O)cc6)C(=O)N6CCC[C@@H]6C(=O)N[C@H](CCCNC(=N)N)C(=O)N[C@H](CCC(=O)O)C(=O)NCC(=O)NCc6ccc(CC(N)=O)cc6)cc5)cc4)cc3)cc2)cc1` [KRAS-1-11] (5FAM-[dY][dH][dP][dW]V[X1]G[dK][dH][dN]F[X1][dP][dS][dE][dR]G[X1][dP][dK][dY][dR]F[X1][dP]G[dR][dW]G[X1][dY][dP][dR][dE]G-{NHCH2C6H4(4-CH2CONH2)}), the Kd (K-Ras; [1]) was 60 nM.
`CC(C)C[C@H](NC(=O)[C@@H](CCCNC(=N)N)NC(=O)[C@@H](CCCCN)NC(=O)[C@@H](CCC(=O)O)NC(=O)[C@@H](Cc1ccccc1)NC(=O)Cc1ccc(CNC(=O)[C@H](Cc2ccccc2)NC(=O)[C@@H](CO)NC(=O)[C@@H](CCC(=O)O)NC(=O)[C@H]2CCCN2C(=O)[C@@H](CC(C)C)NC(=O)c2ccc3c(c2)C(=O)OC32c3ccc(O)cc3Oc3cc(O)ccc32)cc1)C(=O)NCc1ccc(CC(=O)N2CCC[C@@H]2C(=O)N[C@H](CO)C(=O)N[C@H](CCC(=O)O)C(=O)N[C@H](CCCNC(=N)N)C(=O)NCC(=O)NCc2ccc(CC(=O)N3CCC[C@@H]3C(=O)N[C@H](CCCCN)C(=O)N[C@H](Cc3ccc(O)cc3)C(=O)N[C@H](CCCNC(=N)N)C(=O)N[C@@H](Cc3ccccc3)C(=O)NCc3ccc(CC(=O)N4CCC[C@@H]4C(=O)NCC(=O)N[C@H](CCCNC(=N)N)C(=O)N[C@H](Cc4c[nH]c5ccccc45)C(=O)NCC(=O)NCc4ccc(CC(=O)NCC(=O)N[C@H](Cc5c[nH]c6ccccc56)C(=O)N[C@H](Cc5c[nH]cn5)C(=O)N[C@H](CCCNC(=N)N)C(=O)N[C@@H](C)C(=O)NCc5ccc(CC(N)=O)cc5)cc4)cc3)cc2)cc1` [KRAS-1-12] (5FAM-[dL][dP][dE][dS]F[X1][dF][dE][dK][dR]L[X1][dP][dS][dE][dR]G[X1][dP][dK][dY][dR]F[X1][dP]G[dR][dW]G[X1]G[dW][dH][dR]A-{NHCH2C6H4(4-CH2CONH2)}) gave a Kd (K-Ras; [1]) of 24 nM.
`CC(C)C[C@H](NC(=O)[C@@H](CCCNC(=N)N)NC(=O)[C@@H](CCCCN)NC(=O)[C@@H](CCC(=O)O)NC(=O)[C@@H](Cc1ccccc1)NC(=O)Cc1ccc(CNC(=O)[C@@H](NC(=O)[C@@H](Cc2ccc(O)cc2)NC(=O)[C@@H](Cc2c[nH]cn2)NC(=O)[C@H]2CCCN2C(=O)[C@@H](Cc2c[nH]c3ccccc23)NC(=O)c2ccc3c(c2)C(=O)OC32c3ccc(O)cc3Oc3cc(O)ccc32)C(C)C)cc1)C(=O)NCc1ccc(CC(=O)N2CCC[C@@H]2C(=O)N[C@H](CO)C(=O)N[C@H](CCC(=O)O)C(=O)N[C@H](CCCNC(=N)N)C(=O)NCC(=O)NCc2ccc(CC(=O)N3CCC[C@@H]3C(=O)N[C@H](CCCCN)C(=O)N[C@H](Cc3ccc(O)cc3)C(=O)N[C@H](CCCNC(=N)N)C(=O)N[C@@H](Cc3ccccc3)C(=O)NCc3ccc(CC(=O)N4CCC[C@@H]4C(=O)NCC(=O)N[C@H](CCCNC(=N)N)C(=O)N[C@H](Cc4c[nH]c5ccccc45)C(=O)NCC(=O)NCc4ccc(CC(=O)N[C@H](Cc5c[nH]cn5)C(=O)N[C@H](Cc5ccc(O)cc5)C(=O)N[C@H](CO)C(=O)N[C@H](CCC(=O)O)C(=O)N[C@@H](Cc5ccccc5)C(=O)NCc5ccc(CC(N)=O)cc5)cc4)cc3)cc2)cc1` [KRAS-1-15] (5FAM-[dW][dP][dH][dY]V[X1][dF][dE][dK][dR]L[X1][dP][dS][dE][dR]G[X1][dP][dK][dY][dR]F[X1][dP]G[dR][dW]G[X1][dH][dY][dS][dE]F-{NHCH2C6H4(4-CH2CONH2)}) showed a Kd (K-Ras; [1]) of 180 nM.
